Legend:
Assay in all cases: Bliss excess, mean over the matrix (fraction); higher = more synergy
[1] = tested on: DMS-53 (Small Cell Lung Carcinoma)
Procedure, shortened: (§1)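 Bliss excess equals the observed combination effect minus the expected value EA + EB − EA·EB, where EA and EB are the effects of each agent alone. Combination Emax is the second-highest inhibition within the matrix. Inhibition was scaled from CellTiter-Glo 2.0 luminescence, with 0 set by vehicle wells and 1 by blank wells, after 72 hours of two-drug dosing of cells plated in 1536-well plates.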

EW-16 (Ewing's Sarcoma) = tested on: EW-16 (Ewing's Sarcoma)
Procedure, shortened: as §1

769-P (Kidney Carcinoma) = tested on: 769-P (Kidney Carcinoma)
Procedure, shortened: as §1

[2] = tested on: HCC1428 (Breast Carcinoma)
Procedure, shortened: as §1

[3] = tested on: NCI-H1651 (Lung Adenocarcinoma)
Procedure, shortened: as §1

[4] = tested on: A253 (Head and Neck Carcinoma)
Procedure, shortened: as §1

[5] = tested on: CAL-27 (Oral Cavity Carcinoma)
Procedure, shortened: as §1

RH-41 (Rhabdomyosarcoma) = tested on: RH-41 (Rhabdomyosarcoma)
Procedure, shortened: as §1

[6] = tested on: NCI-H441 (Lung Adenocarcinoma)
Procedure, shortened: as §1

[7] = tested on: JIMT-1 (Breast Carcinoma)
Procedure, shortened: as §1

AU565 (Breast Carcinoma) = tested on: AU565 (Breast Carcinoma)
Procedure, shortened: as §1

[8] = tested on: EPLC-272H (Other Solid Carcinomas)
Procedure, shortened: as §1

[9] = tested on: huH-1 (Hepatocellular Carcinoma)
Procedure, shortened: as §1

[10] = tested on: LS-411N (Colorectal Carcinoma)
Procedure, shortened: as §1

[11] = tested on: MDA-MB-436 (Breast Carcinoma)
Procedure, shortened: as §1

[12] = tested on: GCT (Other Solid Carcinomas)
Procedure, shortened: as §1

[13] = tested on: CGTH-W-1 (Thyroid Gland Carcinoma)
Procedure, shortened: as §1

[14] = tested on: A2780 (Ovarian Carcinoma)
Procedure, shortened: as §1

[15] = tested on: Jurkat (T-Lymphoblastic Leukemia)
Procedure, shortened: as §1

[16] = tested on: CA46 (Burkitt's Lymphoma)
Procedure, shortened: as §1

SMILES | Bliss excess [1] | Bliss excess (EW-16 (Ewing's Sarcoma)) | Bliss excess (769-P (Kidney Carcinoma)) | Bliss excess [2] | Bliss excess [3] | Bliss excess [4] | Bliss excess [5] | Bliss excess (RH-41 (Rhabdomyosarcoma)) | Bliss excess [6] | Bliss excess [7] | Bliss excess (AU565 (Breast Carcinoma)) | Bliss excess [8] | Bliss excess [9] | Bliss excess [10] | Bliss excess [11] | Bliss excess [12] | Bliss excess [13] | Bliss excess [14] | Bliss excess [15] | Bliss excess [16]
COc1nnc2ccc(N3CCC(c4ccc(OCCN5CCN(C)C(=O)[C@H]5C)cc4)CC3)nn12 [AZD5153] + Cn1cnc2c(F)c(Nc3ccc(Br)cc3Cl)c(C(=O)NOCCO)cc21 [Selumetinib] (first compound max 1 µM, 7x7, partner max 10 µM) | -0.0043 | -0.0456 | -0.0261 | 0.0137 | -0.0319 | 0.0009 | -0.0093 | -0.0176 | -0.0338 | -0.0082 | 0.0278 | 0.0173 | -0.0102 | 0.0602 | -0.0275 | -0.0506 | -0.0059 | -0.0118 | -0.0326 | -0.0282
CC1(C)CCC(CN2CCN(c3ccc(C(=O)NS(=O)(=O)c4ccc(NCC5CCOCC5)c([N+](=O)[O-])c4)c(Oc4cnc5[nH]ccc5c4)c3)CC2)=C(c2ccc(Cl)cc2)C1 [Venetoclax] + Cn1cnc2c(F)c(Nc3ccc(Br)cc3Cl)c(C(=O)NOCCO)cc21 [Selumetinib] (first compound max 1 µM, 7x7, partner max 3 µM) | 0.0543 | -0.0561 | -0.004 | -0.026 | -0.0367 | -0.028 | -0.0087 | 0.0237 | -0.043 | -0.0429 | 0.0147 | -0.0184 | -0.0539 | -0.0148 | -0.0303 | -0.0399 | -0.0482 | 0.0027 | 0.0054 | -0.068
COc1cccc(OCCCN)c1-c1cc(Nc2cnc(C#N)cn2)n[nH]1 [Prexasertib] + C[C@@H]1COCCN1C2=NC(=NC(=C2)C3(CC3)[S@](=N)(=O)C)C4=C5C=CNC5=NC=C4 [AZD6738] (first compound max 1 µM, 7x7, partner max 10 µM) | 0.032 | 0.0053 | 0.0022 | -0.02 | -0.0439 | -0.0334 | 0.0227 | -0.0423 | 0.0009 | 0.0026 | -0.0612 | -0.0656 | -0.0716 | -0.0349 | 0.0051 | -0.0001 | -0.0348 | -0.0173 | -0.0076 | -0.0755
CC1(C)CCC(CN2CCN(c3ccc(C(=O)NS(=O)(=O)c4ccc(NCC5CCOCC5)c([N+](=O)[O-])c4)c(Oc4cnc5[nH]ccc5c4)c3)CC2)=C(c2ccc(Cl)cc2)C1 [Venetoclax] + Cc1cc2ncnn2cc1Nc1ncc2c(n1)n(C1CCOCC1)c(=O)n2C [AZD7648] (first compound max 1 µM, 7x7, partner max 10 µM) | 0.11 | -0.0534 | -0.0087 | -0.006 | -0.0342 | 0.0072 | 0.0079 | -0.0007 | -0.0437 | -0.0248 | 0.0266 | -0.0656 | -0.0511 | -0.0184 | -0.04 | -0.046 | -0.0771 | -0.03 | 0.0164 | -0.0454
Cc1c2c(nn1C)CSCc1cc(n(C)n1)CSc1cc(c3ccccc3c1)OCCCc1c(C(=O)O)n(C)c3c-2c(Cl)ccc13 [AZD5991] + C1CN(CCC1(C(=O)N[C@@H](CCO)C2=CC=C(C=C2)Cl)N)C3=NC=NC4=C3C=CN4 [Capivasertib] (first compound max 1 µM, 7x7, partner max 3 µM) | 0.0168 | -0.0456 | -0.0369 | 0.0136 | 0.0279 | 0.0473 | 0.0073 | -0.0334 | -0.0023 | -0.0056 | 0.0218 | 0.0341 | -0.0149 | -0.0038 | -0.0204 | -0.0219 | 0.0091 | -0.0233 | 0.0115 | 0.0205
CN(C)CCCOc1ccc(-c2ccc3ncc4c(c3c2)n(C2CCOCC2)c(=O)n4C)cn1 [AZD0156] + C=CCn1c(=O)c2cnc(Nc3ccc(N4CCN(C)CC4)cc3)nc2n1-c1cccc(C(C)(C)O)n1 [AZD1775] (first compound max 1 µM, partner max 1 µM) | -0.028 | -0.0464 | -0.0025 | -0.115 | -0.0046 | -0.0389 | -0.0539 | -0.0175 | -0.0963 | -0.0287 | -0.016 | -0.0105 | 0.0041 | -0.0042 | -0.0623 | -0.0811 | -0.033 | -0.0284 | 0.0794 | -0.0283
C[C@@H]1COCCN1c1cc(C2([S@](C)(=N)=O)CC2)nc(-c2ccnc3[nH]ccc23)n1 [AZD6738] + O=C(c1cc(Cc2n[nH]c(=O)c3ccccc23)ccc1F)N1CCN(C(=O)C2CC2)CC1 [Olaparib] (first compound max 10 µM, 7x7, partner max 10 µM) | -0.002 | 0.0402 | -0.0656 | -0.003 | 0.0418 | 0.0371 | 0.12 | -0.0201 | 0.0124 | -0.0247 | 0.005 | -0.0682 | -0.0162 | -0.105 | -0.0176 | -0.0027 | 0.0176 | 0.006 | 0.0592 | 0.0138
CC1(C)CCC(CN2CCN(c3ccc(C(=O)NS(=O)(=O)c4ccc(NCC5CCOCC5)c([N+](=O)[O-])c4)c(Oc4cnc5[nH]ccc5c4)c3)CC2)=C(c2ccc(Cl)cc2)C1 [Venetoclax] + CCN(CCO)CCCOc1ccc2c(Nc3cc(CC(=O)Nc4cccc(F)c4)[nH]n3)ncnc2c1 [AZD2811] (first compound max 1 µM, 7x7, partner max 1 µM) | 0.069 | 0.0619 | -0.0637 | 0.118 | 0.0011 | 0.046 | -0.0302 | 0.0561 | -0.044 | -0.0232 | 0.0097 | 0.0409 | -0.0337 | -0.0284 | -0.023 | -0.004 | -0.0078 | 0.019 | 0.0202 | -0.0283
CCN(CCO)CCCOc1ccc2c(Nc3cc(CC(=O)Nc4cccc(F)c4)[nH]n3)ncnc2c1 [AZD2811] + C[C@@H]1COCCN1C2=NC(=NC(=C2)C3(CC3)[S@](=N)(=O)C)C4=C5C=CNC5=NC=C4 [AZD6738] (first compound max 1 µM, 7x7, partner max 10 µM) | -0.0357 | -0.018 | -0.0107 | -0.0369 | -0.0555 | -0.0471 | -0.0452 | -0.0477 | -0.0324 | -0.0203 | -0.002 | 0.0137 | -0.0294 | -0.0366 | -0.0469 | -0.0318 | -0.0461 | -0.0619 | 0.0336 | -0.0698
NC1(C(=O)N[C@@H](CCO)c2ccc(Cl)cc2)CCN(c2ncnc3[nH]ccc23)CC1 [Capivasertib] + COc1nnc2ccc(N3CCC(c4ccc(OCCN5CCN(C)C(=O)[C@H]5C)cc4)CC3)nn12 [AZD5153] (first compound max 10 µM, 7x7, partner max 1 µM) | -0.0195 | 0.0283 | 0.055 | -0.0596 | -0.0361 | 0.125 | -0.0366 | 0.0198 | -0.006 | 0.0698 | 0.0693 | -0.0025 | 0.0064 | 0.11 | -0.0555 | 0.0049 | 0.0068 | -0.0148 | 0.0593 | -0.0183
Cn1cnc2c(F)c(Nc3ccc(Br)cc3Cl)c(C(=O)NOCCO)cc21 [Selumetinib] + CCN(CCO)CCCOc1ccc2c(Nc3cc(CC(=O)Nc4cccc(F)c4)[nH]n3)ncnc2c1 [AZD2811] (first compound max 10 µM, 7x7, partner max 1 µM) | -0.0629 | -0.0221 | -0.0062 | 0.0269 | -0.0283 | -0.018 | -0.0921 | 0.0363 | -0.0565 | -0.0403 | -0.0167 | 0.0426 | -0.0492 | -0.0115 | -0.006 | -0.0185 | -0.0329 | 0.0251 | -0.0216 | -0.0093
C=CCn1c(=O)c2cnc(Nc3ccc(N4CCN(C)CC4)cc3)nc2n1-c1cccc(C(C)(C)O)n1 [AZD1775] + C[C@@H]1COCCN1C2=NC(=NC(=C2)C3(CC3)[S@](=N)(=O)C)C4=C5C=CNC5=NC=C4 [AZD6738] (first compound max 1 µM, partner max 10 µM) | 0.0115 | 0.0132 | 0.0092 | 0.0035 | -0.0105 | 0.0764 | 0.0428 | 0.0493 | -0.0834 | -0.01 | -0.0083 | 0.0036 | 0.019 | 0.0732 | 0.0143 | 0.0157 | 0.0368 | 0.0221 | 0.038 | 0.0061
CC1(C)CCC(CN2CCN(c3ccc(C(=O)NS(=O)(=O)c4ccc(NCC5CCOCC5)c([N+](=O)[O-])c4)c(Oc4cnc5[nH]ccc5c4)c3)CC2)=C(c2ccc(Cl)cc2)C1 [Venetoclax] + COc1cc(Nc2ncc3c(n2)-c2ccc(Cl)cc2C(c2c(F)cccc2OC)=NC3)ccc1C(=O)O [Alisertib] (first compound max 1 µM, 7x7, partner max 10 µM) | 0.192 | 0.0541 | 0.0339 | 0.0554 | 0.0211 | 0.0091 | -0.0088 | 0.135 | -0.0511 | -0.0247 | 0.106 | 0.0442 | -0.02 | -0.0329 | -0.0299 | -0.0365 | -0.0198 | -0.0602 | 0.165 | -0.017
CC1(C)CCC(CN2CCN(c3ccc(C(=O)NS(=O)(=O)c4ccc(NCC5CCOCC5)c([N+](=O)[O-])c4)c(Oc4cnc5[nH]ccc5c4)c3)CC2)=C(c2ccc(Cl)cc2)C1 [Venetoclax] + CN(C)CCCOc1ccc(-c2ccc3ncc4c(c3c2)n(C2CCOCC2)c(=O)n4C)cn1 [AZD0156] (first compound max 1 µM, 7x7, partner max 1 µM) | 0.0619 | -0.0659 | -0.0276 | 0.0145 | -0.0174 | 0.0119 | 0.0065 | 0.0618 | -0.0733 | -0.0819 | 0.0206 | -0.0501 | -0.032 | -0.0214 | -0.0319 | -0.0404 | -0.0286 | -0.02 | -0.0111 | -0.026

Reference: the supplement of paper PMC11061612
